This is an account of results in patent US12252470B2, “Lipids and nanoparticle compositions thereof” (Generation Bio Co., priority 2020, dated 2025).

SMILES strings stand for the structures.

The subject of series [1] is ceDNA-luciferase (ceDNA-luc). Put plainly: In vivo ceDNA-luc expression by IVIS imaging after IV dosing of LNPs. The arrangement: species or system CD-1 mice. Conditions: for luciferase expressions and/or activity compared to SS-OP LNP / luciferase expressions and/or activity compared to positive control SS-OP ceDNA LNPs / luciferase activity compared to positive control SS-OP ceDNA LNP / luciferase expression and/or activity compared to positive control SS-OP ceDNA LNP: Day 4; for luciferase expressions and/or activity compared to SS-OP LNP: 0.25 mg/kg IV; for luciferase expression and/or activity, rank among lipids tested: Studies A and B; for luciferase expressions and/or activity compared to positive control SS-OP ceDNA LNPs: Study A, vs LNPs 1, 2 and 7-12 (SS-OP), FIG. 1; for luciferase expressions and/or activity compared to positive control SS-OP ceDNA LNPs / luciferase activity compared to positive control SS-OP ceDNA LNP: 0.25 mg/kg IV once on Day 0; for luciferase activity compared to positive control SS-OP ceDNA LNP: Study B, vs LNP 13 (SS-OP), FIG. 2; for luciferase expression and/or activity compared to positive control SS-OP ceDNA LNP: Study C, at both 25 mg/kg and 1 mg/kg, vs LNP 19 (SS-OP), FIG. 3. As for the experimental part:
Lipid nanoparticles (LNP) were prepared at a total lipid to ceDNA weight ratio of approximately 10:1 to 30:1. Briefly, an ionizable lipid of the present invention, a non-cationic lipid (e.g., distearoylphosphatidylcholine (DSPC)), a component to provide membrane integrity (such as a sterol, e.g., cholesterol) and a conjugated lipid molecule (such as a PEG-lipid, e.g., 1-(monomethoxy-polyethyleneglycol)-2,3-dimyristoylglycerol, with an average PEG molecular weight of 2000 (“PEG-DMG”)), were solubilized in alcohol (e.g., ethanol) at a molar ratio of, for example, 50:10:37:3 or 20:40:38:2. The ceDNA was diluted to a desired concentration in buffer solution. For example, the ceDNA were diluted to a concentration of 0.1 mg/ml to 0.25 mg/ml in a buffer solution comprising sodium acetate, sodium acetate and magnesium chloride, citrate, malic acid, or malic acid and sodium chloride. In one example, the ceDNA was diluted to 0.2 mg/mL in 10 to 50 mM citrate buffer, pH 4. The alcoholic lipid solution was mixed with ceDNA aqueous solution using, for example, syringe pumps or an impinging jet mixer, at a ratio of about 1:5 to 1:3 (vol/vol) with total flow rates above 10 ml/min. In one example, the alcoholic lipid solution was mixed with ceDNA aqueous at a ratio of about 1:3 (vol/vol) with a flow rate of 12 ml/min. The alcohol was removed, and the buffer was replaced with PBS by dialysis. Alternatively, the buffers were replaced with PBS using centrifugal tubes. Alcohol removal and simultaneous buffer exchange were accomplished by, for example, dialysis or tangential flow filtration. The obtained lipid nanoparticles are filtered through a 0.2 µm pore sterile filter.
In one study, lipid nanoparticles comprising exemplary ceDNAs were prepared using a lipid solution comprising SS-OP, DSPC, Cholesterol and DMG-PEG2000 (mol ratio 50:10:37:3) as control. In some examples, a tissue target moiety like N-Acetylgalactosamine (GalNAc) was included. A GalNAc moiety such as tri-antennary GalNAc (GalNAc3) or tetra-antennary GalNAc (GalNAc4) can be synthesized as known in the art (see, WO2017/084987 and WO2013/166121) and chemically conjugated to lipid or PEG as well-known in the art (see, Resen et al., J. Biol. Chem. (2001) “Determination of the Upper Size Limit for Uptake and Processing of Ligands by the Asialoglycoprotein Receptor on Hepatocytes in Vitro and in Vivo” […]). Aqueous solutions of ceDNA in buffered solutions were prepared. The lipid solution and the ceDNA solution were mixed using an in-house procedure on a NanoAssembler at a total flow rate of 12 mL/min at a lipid to ceDNA ratio of 1:3 (v/v).
(§1) Species (number, sex, age): CD-1 mice (N=65 and 5 spare, male, about 4 weeks of age at arrival).
(§2) Dose Administration: Test articles (LNPs: ceDNA-Luc) were dosed at 5 mL/kg on Day 0 for Groups 1-38 by intravenous administration to lateral tail vein.
• Luciferin stock powder was stored at nominally −20° C. • Stored formulated luciferin in 1 mL aliquots at 2-8° C. protect from light. • Formulated luciferin was stable for up to 3 weeks at 2-8° C., protected from light and stable for about 12 hrs at room temperature (RT). • Dissolved luciferin in PBS to a target concentration of 60 mg/mL at a sufficient volume and adjusted to pH=7.4 with 5-M NaOH (about 0.5 μl/mg luciferin) and HCl (about 0.5 μL/mg luciferin) as needed. • Prepared the appropriate amount according to protocol including at least a about 50% overage. […]

Series [2] in a line: Tolerability in mice as measured by change in body weight. The format is in vivo. Conditions: body weight at Day 1, 0.25 mg/kg IV. Here is the method: as §1
Clinical Observations: Clinical observations were performed about 1, about 5 to about 6 and about 24 hours post the Day 0 Test Material dose. Additional observations were made per exception. Body weights for all animals, as applicable, were recorded on Days 0, 1, 2, 3, 4 & 7 (prior to euthanasia). Additional body weights were recorded as needed.
as §2

Where [3] appears, read: Study D, vs LNP 23 (SS-OP), FIG. 4A.
[4] abbreviates: Study D, control Ionizable Lipid A (LNP 22), FIG. 4B.
The mark [5] stands for this setting: Study E, vs LNP 27 (SS-OP), FIG. 5A.
Setting [6] is: Study E, outlier data point in LNP 30 excepted, FIG. 5B.

In the case of `CCCCCCCC/C=C\CCCCCCCC(=O)Oc1ccc(CC(=O)OCCC2CCN(CCSSCCN3CCC(CCOC(=O)Cc4ccc(OC(=O)CCCCCCCC(=O)OC(CCCC)CCCCCCCC)cc4)CC3)CC2)cc1` (stereo not drawn) [Lipid 7, 1-(4-(2-(2-(1-(2-((2-(4-(2-(2-(4-(oleoyloxy)phenyl)acetoxy)ethyl)piperidin-1-yl)ethyl)disulfaneyl)ethyl)piperidin-4-yl)ethoxy)-2-oxoethyl)phenyl) 9-(tridecan-5-yl) nonanedioate], the “luciferase expressions and/or activity compared to SS-OP LNP” value in series [1] (setting [3]) is “equivalent or higher”. In addition, in series [2] (setting [4]), the “tolerability (change in body weight)” value is on record as “did not cause changes in body weight”.

Regarding `CCCCCCCC/C=C\CCCCCCCC(=O)Oc1ccc(CC(=O)OCCC2CCN(CCSSCCN3CCC(CCOC(=O)Cc4ccc(OC(=O)CCCCCCCC(=O)OC(CC)CCCCCCCC)cc4)CC3)CC2)cc1` (stereo not drawn) [Lipid 6, 1-(4-(2-(2-(1-(2-((2-(4-(2-(2-(4-(oleoyloxy)phenyl)acetoxy)ethyl)piperidin-1-yl)ethyl)disulfaneyl)ethyl)piperidin-4-yl)ethoxy)-2-oxoethyl)phenyl) 9-(undecan-3-yl) nonanedioate], the “luciferase expressions and/or activity compared to SS-OP LNP” value in series [1] (setting [3]) was “equivalent or higher”. For the same compound, the “tolerability (change in body weight)” value in series [2] (setting [4]) is recorded as “did not cause changes in body weight”.

On to `CCCCCCCC/C=C\CCCCCCCC(=O)Oc1ccc(CC(=O)OCCC2CCN(CCSSCCN3CCC(CCOC(=O)Cc4ccc(OC(=O)CCCCCCCC(=O)OC(CCCCCCCC)CCCCCCCC)cc4)CC3)CC2)cc1` [Lipid 1, 1-(heptadecan-9-yl) 9-(4-(2-(2-(1-(2-((2-(4-(2-(2-(4-(oleoyloxy)phenyl)acetoxy)ethyl)piperidin-1-yl)ethyl)disulfaneyl)ethyl)piperidin-4-yl)ethoxy)-2-oxoethyl)phenyl) nonanedioate], for which, in series [1], the “luciferase expression and/or activity, rank among lipids tested” value is on record as “highest”; the “luciferase expressions and/or activity compared to positive control SS-OP ceDNA LNPs” value is listed as “equivalent or higher”; the “luciferase activity compared to positive control SS-OP ceDNA LNP” value is on record as “equivalent or higher”; the “luciferase expression and/or activity compared to positive control SS-OP ceDNA LNP” value is listed as “higher”.

`CCCCCCCCCOC(=O)CCCC(=O)Oc1ccc(CC(=O)OCCC2CCN(CCSSCCN3CCC(CCOC(=O)Cc4ccc(OC(=O)CCCCCCCC(=O)OC(CCCCCCCC)CCCCCCCC)cc4)CC3)CC2)cc1` [Lipid 2, 1-(heptadecan-9-yl) 9-(4-(2-(2-(1-(2-((2-(4-(2-(2-(4-((5-(nonyloxy)-5-oxopentanoyl)oxy)phenyl)acetoxy)ethyl)piperidin-1-yl)ethyl)disulfaneyl)ethyl)piperidin-4-yl)ethoxy)-2-oxoethyl)phenyl) nonanedioate]: in series [1], the “luciferase expressions and/or activity compared to positive control SS-OP ceDNA LNPs” value was “equivalent or higher” and the “luciferase activity compared to positive control SS-OP ceDNA LNP” value is listed as “equivalent or higher”.

As for `CCCCCCCCCOC(=O)CCCCCCCC(=O)Oc1ccc(CC(=O)OCCC2CCN(CCSSCCN3CCC(CCOC(=O)Cc4ccc(OC(=O)CCCCCCCC(=O)OC(CCCC)CCCCCCCC)cc4)CC3)CC2)cc1` (stereo not drawn) [Lipid 10, 1-nonyl 9-(4-(2-oxo-2-(2-(1-(2-((2-(4-(2-(2-(4-((9-oxo-9-(tridecan-5-yloxy)nonanoyl)oxy)phenyl)acetoxy)ethyl)piperidin-1-yl)ethyl)disulfaneyl)ethyl)piperidin-4-yl)ethoxy)ethyl)phenyl) nonanedioate], the “luciferase expressions and/or activity compared to SS-OP LNP” value in series [1] (setting [5]) was “equivalent or higher”. For the same compound, in series [2] (setting [6]), the “tolerability (change in body weight)” value was “did not cause significant changes in body weight”.

For `CCCCCCCCCOC(=O)CCCCCCCC(=O)Oc1ccc(CC(=O)OCCC2CCN(CCSSCCN3CCC(CCOC(=O)Cc4ccc(OC(=O)CCCCCCCC(=O)OC(CCCCCCCC)CCCCCCCC)cc4)CC3)CC2)cc1` [Lipid 3, 1-(heptadecan-9-yl) 9-(4-(2-(2-(1-(2-((2-(4-(2-(2-(4-((9-(nonyloxy)-9-oxononanoyl)oxy)phenyl)acetoxy)ethyl)piperidin-1-yl)ethyl)disulfaneyl)ethyl)piperidin-4-yl)ethoxy)-2-oxoethyl)phenyl) nonanedioate], in series [1], the “luciferase expression and/or activity, rank among lipids tested” value is “highest”; the “luciferase expressions and/or activity compared to positive control SS-OP ceDNA LNPs” value was “equivalent or higher”; the “luciferase activity compared to positive control SS-OP ceDNA LNP” value is on record as “equivalent or higher”; the “luciferase expression and/or activity compared to positive control SS-OP ceDNA LNP” value is “higher”.

`CCCCCCCCCOC(=O)CCCCCCCC(=O)Oc1ccc(CC(=O)OCCC2CCN(CCSSCCN3CCC(CCOC(=O)Cc4ccc(OC(=O)CCCCCCCC(=O)OC(CCCCCC)CCCCCCCC)cc4)CC3)CC2)cc1` (stereo not drawn) [Lipid 11, 1-nonyl 9-(4-(2-oxo-2-(2-(1-(2-((2-(4-(2-(2-(4-((9-oxo-9-(pentadecan-7-yloxy)nonanoyl)oxy)phenyl)acetoxy)ethyl)piperidin-1-yl)ethyl)disulfaneyl)ethyl)piperidin-4-yl)ethoxy)ethyl)phenyl) nonanedioate]: the “luciferase expressions and/or activity compared to SS-OP LNP” value in series [1] (setting [5]) is reported as “equivalent or higher”. Also, the “tolerability (change in body weight)” value in series [2] (setting [6]) is recorded as “did not cause significant changes in body weight”.

Take `CCCCCCCCC(CCCCCCCC)OC(=O)CCCCCCCC(=O)Oc1ccc(CC(=O)OCCC2CCN(CCSSCCN3CCC(CCOC(=O)Cc4ccc(OC(=O)CCCCCCCC(=O)OC(CCCCCCCC)CCCCCCCC)cc4)CC3)CC2)cc1` [Lipid 5, O′1,O1-((((((disulfanediylbis(ethane-2,1-diyl))bis(piperidine-1,4-diyl))bis(ethane-2,1-diyl))bis(oxy))bis(2-oxoethane-2,1-diyl))bis(4,1-phenylene)) 9,9′-di(heptadecan-9-yl) di(nonanedioate)]: in series [1], the “luciferase expressions and/or activity compared to positive control SS-OP ceDNA LNPs” value was “equivalent or higher” and the “luciferase activity compared to positive control SS-OP ceDNA LNP” value is “equivalent or higher”.

Regarding `CCCCCCCC/C=C\CCCCCCCC(=O)Oc1ccc(CC(=O)OCCC2CCN(CCSSCCN3CCC(CCOC(=O)Cc4ccc(OC(=O)CCCCCCCC(=O)OC(CCCCCC)CCCCCCCC)cc4)CC3)CC2)cc1` (stereo not drawn) [Lipid 8, 1-(4-(2-(2-(1-(2-((2-(4-(2-(2-(4-(oleoyloxy)phenyl)acetoxy)ethyl)piperidin-1-yl)ethyl)disulfaneyl)ethyl)piperidin-4-yl)ethoxy)-2-oxoethyl)phenyl) 9-(pentadecan-7-yl) nonanedioate], the “luciferase expressions and/or activity compared to SS-OP LNP” value in series [1] (setting [3]) is on record as “equivalent or higher”. Moreover, the “tolerability (change in body weight)” value in series [2] (setting [4]) is given as “did not cause changes in body weight”.

For the compound `CCCCCCCCCOC(=O)CCCCCCCC(=O)Oc1ccc(CC(=O)OCCC2CCN(CCSSCCN3CCC(CCOC(=O)Cc4ccc(OC(=O)CCCCCCCC(=O)OC(CC)CCCCCCCC)cc4)CC3)CC2)cc1` (stereo not drawn) [Lipid 9, 1-nonyl 9-(4-(2-oxo-2-(2-(1-(2-((2-(4-(2-(2-(4-((9-oxo-9-(undecan-3-yloxy)nonanoyl)oxy)phenyl)acetoxy)ethyl)piperidin-1-yl)ethyl)disulfaneyl)ethyl)piperidin-4-yl)ethoxy)ethyl)phenyl) nonanedioate], the “luciferase expressions and/or activity compared to SS-OP LNP” value in series [1] (setting [5]) was “equivalent or higher”. Moreover, the “tolerability (change in body weight)” value in series [2] (setting [6]) is given as “did not cause significant changes in body weight”.
